Assay results as given in patent US20090270477A1, “POLYMORPHS OF A HYDROISOINDOLINE TACHYKININ RECEPTOR ANTAGONIST” (priority 2006, published 2009).

Assay: Relative thermodynamic stability of the two anhydrous crystalline forms (enantiotropic pair)
Format: physicochemical
Settings: freebase of compound of structural formula A; Form I and Form II are enantiotropic

Row | SMILES | temperatures at which the form is thermodynamically more stable
1 | C[C@@H](O[C@H]1CC[C@@H]2CN(C3=CC(=O)CC3)C[C@H]2[C@@H]1c1ccc(F)cc1)c1cc(C(F)(F)F)cc(C(F)(F)F)c1 [Form I] | below 72 °C
2 | C[C@@H](O[C@H]1CC[C@@H]2CN(C3=CC(=O)CC3)C[C@H]2[C@@H]1c1ccc(F)cc1)c1cc(C(F)(F)F)cc(C(F)(F)F)c1 [Form II] | above 72 °C
